Assay results published in PubChem BioAssay AID328 (DTP/NCI, 2004).
Values joined by “and” are separate entries in the source; they are usually repeats but may differ in a detail not shown here. Equal entries are not always repeated. Inconclusive results and toxic doses are left out.

Tested on: BDF1 mice, P388 leukemia ip, median survival T/C
Test: NCI In Vivo Anticancer Drug Screen. Data for tumor model P388 Leukemia (intraperitoneal) in B6D2F1 (BDF1) mice
Settings: endpoint: median survival time, higher = longer survival
In short: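 T/C = treated-group survival ÷ vehicle-control survival; tumour transplanted into mice before dosing.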

[1] = dose: 100.0 mg/kg/injection, schedule: Q01DX009 (ip), vehicle: saline with Tween-80
[2] = dose: 100.0 mg/kg/injection, schedule: Q04DX003 (ip), vehicle: saline with Tween-80
[3] = dose: 200.0 mg/kg/injection, schedule: Q01DX009 (ip), vehicle: saline with Tween-80
[4] = dose: 200.0 mg/kg/injection, schedule: Q04DX003 (ip), vehicle: saline with Tween-80
[5] = dose: 400.0 mg/kg/injection, schedule: Q04DX003 (ip), vehicle: saline with Tween-80
[6] = dose: 100.0 mg/kg/injection, schedule: Q01DX009 (ip), vehicle: Klucel (hydroxypropylcellulose) (HPC)
[7] = dose: 200.0 mg/kg/injection, schedule: Q01DX009 (ip), vehicle: Klucel (hydroxypropylcellulose) (HPC)
[8] = dose: 100.0 mg/kg/injection, schedule: Q04DX003 (ip), vehicle: saline
[9] = dose: 200.0 mg/kg/injection, schedule: Q04DX003 (ip), vehicle: saline
[10] = dose: 400.0 mg/kg/injection, schedule: Q04DX003 (ip), vehicle: saline
[11] = dose: 100.0 mg/kg/injection, schedule: Q01DX009 (ip), vehicle: saline
[12] = dose: 200.0 mg/kg/injection, schedule: Q01DX009 (ip), vehicle: saline
[13] = dose: 400.0 mg/kg/injection, schedule: Q01DX009 (ip), vehicle: saline
[14] = dose: 12.5 mg/kg/injection, schedule: Q01DX009 (ip), vehicle: Klucel (hydroxypropylcellulose) (HPC)
[15] = dose: 25.0 mg/kg/injection, schedule: Q01DX009 (ip), vehicle: Klucel (hydroxypropylcellulose) (HPC)
[16] = dose: 50.0 mg/kg/injection, schedule: Q01DX009 (ip), vehicle: Klucel (hydroxypropylcellulose) (HPC)
[17] = dose: 50.0 mg/kg/injection, schedule: Q04DX003 (ip), vehicle: saline

CC(=O)N1C(=O)N(Cl)C(=O)C1(c1ccc(Cl)cc1)c1ccc(Cl)cc1
T/C (dose: 60.0 mg/kg/injection, schedule: Q01DX009 (ip), vehicle: saline with Tween-80): 116 % of control
T/C [1]: 91 % of control
T/C [2]: 113 % of control
T/C [3]: 113 % of control
T/C [4]: 109 % of control
T/C [5]: 122 % of control

CN(C)CCCNc1nc(NCCCN(C)C)c2nc(-c3ccccc3)c(-c3ccccc3)nc2n1
T/C (dose: 50.0 mg/kg/injection, schedule: Q01DX005 (ip), vehicle: saline with Tween-80): 104 % of control

NC(=O)CNC1=C(N2CC2)C(=O)C(NCC(N)=O)=C(N2CC2)C1=O
T/C (dose: 2.0 mg/kg/injection, schedule: Q01DX009 (ip), vehicle: saline): 171 % of control
T/C (dose: 4.0 mg/kg/injection, schedule: Q01DX009 (ip), vehicle: saline): 166 % of control
T/C (dose: 8.0 mg/kg/injection, schedule: Q01DX009 (ip), vehicle: saline): 116 % of control

CNNCc1ccc(/C=N/NC(N)=S)cc1
T/C (dose: 6.25 mg/kg/injection, schedule: Q01DX009 (ip), vehicle: water): 106 % of control
T/C (dose: 12.5 mg/kg/injection, schedule: Q01DX009 (ip), vehicle: water): 114 % of control
T/C (dose: 25.0 mg/kg/injection, schedule: Q01DX009 (ip), vehicle: water): 92 % of control
T/C (dose: 50.0 mg/kg/injection, schedule: Q01DX009 (ip), vehicle: water): 92 % of control

CCCn1c2ccccc2c2ccccc21
T/C [6]: 120 % of control
T/C [7]: 100 % of control
T/C (dose: 400.0 mg/kg/injection, schedule: Q01DX009 (ip), vehicle: Klucel (hydroxypropylcellulose) (HPC)): 95 % of control

C#CC1(OCC2CN(c3ccccc3)C(=O)O2)CCCCC1 (configuration not stated)
T/C [1]: 90 % of control
T/C [8]: 100 % of control
T/C [3]: 100 % of control
T/C [9]: 100 % of control
T/C (dose: 400.0 mg/kg/injection, schedule: Q01DX009 (ip), vehicle: saline with Tween-80): 109 % of control
T/C [10]: 100 % of control

Cc1cc(C)c(S(=O)(=O)O)cc1C
T/C (dose: 50.0 mg/kg/injection, schedule: Q04DX003 (ip), vehicle: saline with Tween-80): 104 % of control
T/C [2]: 100 % of control

CNC1C(O)C(OC2C(N)CC(N)C(OC3OC(CN)C(O)C(O)C3O)C2O)OCC1(C)O (configuration not stated)
T/C [11]: 100 % of control
T/C [12]: 91 % of control
T/C [13]: 108 % of control

COc1ccc(NC2=NCCS2)cc1
T/C (dose: 50.0 mg/kg/injection, schedule: Q01DX009 (ip), vehicle: saline with Tween-80): 109 % of control
T/C [1]: 104 % of control

[Cl][Pt+2][Cl].[NH-]C1CCC1.[NH-]C1CCC1
T/C [14]: 173 % of control and 201 % of control
T/C [15]: 195 % of control and 213 % of control
T/C [16]: 94 % of control and 115 % of control

CCc1cccc(CC)c1N1C(=O)C=CC1=O
T/C (dose: 1.56 mg/kg/injection, schedule: Q01DX009 (ip), vehicle: saline with Tween-80): 114 % of control
T/C (dose: 3.13 mg/kg/injection, schedule: Q01DX009 (ip), vehicle: saline with Tween-80): 100 % of control
T/C (dose: 6.25 mg/kg/injection, schedule: Q01DX009 (ip), vehicle: saline with Tween-80): 106 % of control
T/C (dose: 12.5 mg/kg/injection, schedule: Q01DX009 (ip), vehicle: saline with Tween-80): 99 % of control

C=C(C)C1CCC2(C=O)CCC3(C)C(CCC4C5(C)CCC(O)C(C)(C)C5CCC43C)C12 (configuration not stated)
T/C (dose: 18.75 mg/kg/injection, schedule: Q01DX009 (ip), vehicle: Klucel (hydroxypropylcellulose) (HPC)): 91 % of control
T/C (dose: 37.5 mg/kg/injection, schedule: Q01DX009 (ip), vehicle: Klucel (hydroxypropylcellulose) (HPC)): 88 % of control
T/C (dose: 75.0 mg/kg/injection, schedule: Q01DX009 (ip), vehicle: Klucel (hydroxypropylcellulose) (HPC)): 95 % of control

CC(C)CC(C(=O)NC1C(=O)NC(Cc2c[nH]c3ccccc23)C(=O)N/C=C\c2ccc(cc2)OC1C(C)C)N(C)C (configuration not stated)
T/C (dose: 0.1 mg/kg/injection, schedule: Q01DX010 (ip), vehicle: alcohol): 100 % of control
T/C (dose: 0.2 mg/kg/injection, schedule: Q01DX010 (ip), vehicle: alcohol): 101 % of control
T/C (dose: 0.8 mg/kg/injection, schedule: Q01DX010 (ip), vehicle: alcohol): 123 % of control
T/C (dose: 1.0 mg/kg/injection, schedule: Q01DX009 (ip), vehicle: steriod suspending solution): 110 % of control
T/C (dose: 2.0 mg/kg/injection, schedule: Q01DX009 (ip), vehicle: steriod suspending solution): 115 % of control
T/C (dose: 4.0 mg/kg/injection, schedule: Q01DX009 (ip), vehicle: steriod suspending solution): 105 % of control
T/C (dose: 8.0 mg/kg/injection, schedule: Q01DX009 (ip), vehicle: steriod suspending solution): 100 % of control

c1ccc(C2CC3CCCCN3O2)cc1 (configuration not stated)
T/C (dose: 100.0 mg/kg/injection, schedule: Q04DX002 (ip), vehicle: saline with Tween-80): 94 % of control
T/C (dose: 200.0 mg/kg/injection, schedule: Q04DX002 (ip), vehicle: saline with Tween-80): 103 % of control
T/C (dose: 400.0 mg/kg/injection, schedule: Q04DX002 (ip), vehicle: saline with Tween-80): 86 % of control

O=C(NO)c1cc(O)c(O)c(O)c1
T/C (dose: 50.0 mg/kg/injection, schedule: Q01DX005 (ip), vehicle: distilled water + Tween-80): 123 % of control
T/C (dose: 200.0 mg/kg/injection, schedule: Q01DX005 (ip), vehicle: distilled water + Tween-80): 150 % of control
T/C (dose: 400.0 mg/kg/injection, schedule: Q01DX005 (ip), vehicle: distilled water + Tween-80): 153 % of control

S=c1cc(-c2cccs2)ss1
T/C (dose: 50.0 mg/kg/injection, schedule: Q01DX009 (ip), vehicle: saline): 109 % of control
T/C [17]: 108 % of control
T/C [11]: 96 % of control
T/C [8]: 115 % of control
T/C [12]: 100 % of control
T/C [9]: 105 % of control
T/C [13]: 91 % of control
T/C [10]: 107 % of control

COC(OC)c1nc(N)[nH]c(=O)c1Cc1ccc(C)c2ccccc12
T/C [1]: 96 % of control
T/C [2]: 109 % of control
T/C [3]: 88 % of control
T/C [4]: 100 % of control
T/C [5]: 100 % of control

C1=NCCCN1
T/C (dose: 25.0 mg/kg/injection, schedule: Q04DX003 (ip), vehicle: saline): 100 % of control
T/C [17]: 100 % of control
T/C [8]: 100 % of control

CC1CCCC/C1=N/NC(N)=O (configuration not stated)
T/C [14]: 95 % of control
T/C [15]: 95 % of control
T/C [16]: 91 % of control
T/C [6]: 104 % of control
T/C (dose: 100.0 mg/kg/injection, schedule: Q04DX003 (ip), vehicle: Klucel (hydroxypropylcellulose) (HPC)): 100 % of control
T/C [7]: 86 % of control
T/C (dose: 200.0 mg/kg/injection, schedule: Q04DX003 (ip), vehicle: Klucel (hydroxypropylcellulose) (HPC)): 95 % of control
T/C (dose: 400.0 mg/kg/injection, schedule: Q04DX003 (ip), vehicle: Klucel (hydroxypropylcellulose) (HPC)): 95 % of control
